Control data for two molecules are collected here from ChEMBL document CHEMBL1151503, “Synthesis of novel ellipticine analogues and their inhibition of Moloney leukaemia reverse transcriptase” (Bioorg Med Chem Lett, 1996).

Holding throughout (design): scale not given: the % may be the effect or the level left
Experiment [1] concerns Moloney murine leukemia virus reverse transcriptase. The experiment can be described thus: Compound was evaluated for inhibition of against moloney leukemia reverse transcriptase at concentration 0.1 mg/mL.
Experiment [2] shares this test system. The experiment can be described thus: Compound was evaluated for inhibition of against moloney leukemia reverse transcriptase at concentration 0.02 mg/mL.
Experiment [3] has the same test system. The experiment can be described thus: Compound was evaluated for inhibition of against moloney leukemia reverse transcriptase at concentration 0.08 mg/mL.
For experiment [4] the test system is unchanged. Description: Compound was evaluated for inhibition of against moloney leukemia reverse transcriptase at concentration 0.04 mg/mL.
For experiment [5] the test system is unchanged. The experiment can be described thus: Compound was evaluated for inhibition of against moloney leukemia reverse transcriptase at concentration 0.01 mg/mL.
The test system is the same in experiment [6]. The experiment can be described thus: Compound was evaluated for inhibition of against moloney leukemia reverse transcriptase at concentration 0 mg/ml.

As to `Cn1c2ccccc2c2cc3ccccc3c[n+]21`, the Control in experiment [1] was determined as 2%; in experiment [2] it was 30%; in experiment [3], 1%; in experiment [4], 3%; in experiment [5] it was 48%; in experiment [6], 100%.

Take `Cn1c2ccc(Cl)cc2c2cc3ccccc3c[n+]21`: the Control amounted to 2% in experiment [1]; 30% in experiment [2]; 1% in experiment [3]; 3% in experiment [4]; 78% in experiment [5]; 100% in experiment [6].
